Several values for one entry are separate records, joined by “and”; a condition that tells them apart may be missing. Identical values can stand only once. Inconclusive results and toxic doses are left out. Cut-off read from the data, not from the text of the source: active = T/C of 150% or more; inactive = T/C below 125%. Square brackets hold non-standard residues; d marks the D form. Peptide text beside a SMILES is read from it. * marks the point of attachment. ξ: configuration not given here. ξY = NC(Cc1ccc(O)cc1)C(=O)O; Cbz = O=C(OCc1ccccc1)*; OBn = c1ccc(CO*)cc1
Tested on: L1210 leukemia ip in BDF1 mice, survival T/C
Test: NCI In Vivo Anticancer Drug Screen. Data for tumor model L1210 Leukemia (intraperitoneal) in B6D2F1 (BDF1) mice
Settings: endpoint: mean survival time, higher = longer survival
Summary of the method: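 Survival endpoint. Drug-treated group vs vehicle group, expressed as T divided by C. Tumor passaged by transplantation.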

[1] = dose: 100.0 mg/kg/injection, schedule: Q01DX001 (ip), vehicle: saline
[2] = dose: 200.0 mg/kg/injection, schedule: Q01DX001 (ip), vehicle: saline
[3] = dose: 100.0 mg/kg/injection, schedule: Q04DX003 (ip), vehicle: saline with Tween-80
[4] = dose: 200.0 mg/kg/injection, schedule: Q04DX003 (ip), vehicle: saline with Tween-80
[5] = dose: 100.0 mg/kg/injection, schedule: Q01DX009 (ip), vehicle: saline
[6] = dose: 100.0 mg/kg/injection, schedule: Q01DX009 (ip), vehicle: Klucel (hydroxypropylcellulose) (HPC)
[7] = dose: 400.0 mg/kg/injection, schedule: Q01DX009 (ip), vehicle: Klucel (hydroxypropylcellulose) (HPC)
[8] = dose: 100.0 mg/kg/injection, schedule: Q04DX003 (ip), vehicle: Klucel (hydroxypropylcellulose) (HPC)
[9] = dose: 200.0 mg/kg/injection, schedule: Q01DX009 (ip), vehicle: Klucel (hydroxypropylcellulose) (HPC)
[10] = dose: 200.0 mg/kg/injection, schedule: Q04DX003 (ip), vehicle: Klucel (hydroxypropylcellulose) (HPC)
[11] = dose: 400.0 mg/kg/injection, schedule: Q04DX003 (ip), vehicle: Klucel (hydroxypropylcellulose) (HPC)
[12] = dose: 100.0 mg/kg/injection, schedule: Q01DX009 (ip), vehicle: saline with Tween-80
[13] = dose: 200.0 mg/kg/injection, schedule: Q01DX009 (ip), vehicle: saline with Tween-80

Measured: T/C

COc1ccc(C(=O)Nc2cc(Cl)ccc2OC)cc1
inactive: dose: 100.0 mg/kg/injection, schedule: Q01DX001 (ip), vehicle: other 101 % of control | dose: 100.0 mg/kg/injection, schedule: Q01DX009 (ip), vehicle: other 98 % of control and 102 % of control | dose: 100.0 mg/kg/injection, schedule: Q04DX002 (ip), vehicle: carboxymethylcellulose (CMC) 93 % of control and 103 % of control | dose: 100.0 mg/kg/injection, schedule: Q04DX003 (ip), vehicle: other 97 % of control | dose: 200.0 mg/kg/injection, schedule: Q01DX001 (ip), vehicle: other 93 % of control | dose: 200.0 mg/kg/injection, schedule: Q01DX009 (ip), vehicle: other 100 % of control and 109 % of control | dose: 200.0 mg/kg/injection, schedule: Q04DX002 (ip), vehicle: carboxymethylcellulose (CMC) 96 % of control and 116 % of control | dose: 200.0 mg/kg/injection, schedule: Q04DX003 (ip), vehicle: other 106 % of control | dose: 400.0 mg/kg/injection, schedule: Q01DX001 (ip), vehicle: other 97 % of control | dose: 400.0 mg/kg/injection, schedule: Q01DX009 (ip), vehicle: other 94 % of control and 88 % of control | dose: 400.0 mg/kg/injection, schedule: Q04DX002 (ip), vehicle: carboxymethylcellulose (CMC) 103 % of control and 104 % of control | dose: 400.0 mg/kg/injection, schedule: Q04DX003 (ip), vehicle: other 105 % of control

Cc1n[nH]c(C)c1C(C)C
inactive: dose: 50.0 mg/kg/injection, schedule: Q01DX001 (ip), vehicle: saline 103 % of control | [1] 101 % of control | [2] 86 % of control

O=C(O)CSc1nc2ccccc2[nH]1
inactive: [3] 100 % of control | [4] 96 % of control | dose: 400.0 mg/kg/injection, schedule: Q04DX003 (ip), vehicle: saline with Tween-80 88 % of control

CCC(C)C1NC(=O)C(C(C)=O)=C1O.[Cu+2] (configuration not stated)
inactive: dose: 150.0 mg/kg/injection, schedule: Q01DX001 (ip), vehicle: carboxymethylcellulose (CMC) 105 % of control

NCC1CCCO1 (configuration not stated)
inactive: dose: 25.0 mg/kg/injection, schedule: Q01DX009 (ip), vehicle: saline 98 % of control | dose: 50.0 mg/kg/injection, schedule: Q01DX009 (ip), vehicle: saline 95 % of control | [5] 101 % of control

CC1CCCC(C)(C)C1NCc1cc(Br)cc(Br)c1O (configuration not stated)
inactive: [6] 107 % of control | [7] 88 % of control

O=S1(=O)C(c2ccccc2)CC1c1ccccc1 (configuration not stated)
inactive: dose: 75.0 mg/kg/injection, schedule: Q04DX003 (ip), vehicle: Klucel (hydroxypropylcellulose) (HPC) 107 % of control | dose: 150.0 mg/kg/injection, schedule: Q04DX003 (ip), vehicle: Klucel (hydroxypropylcellulose) (HPC) 104 % of control | dose: 300.0 mg/kg/injection, schedule: Q04DX003 (ip), vehicle: Klucel (hydroxypropylcellulose) (HPC) 96 % of control

Nc1ccc(C(=O)O)c(O)c1.Nc1ccc(C(=O)O)c(O)c1.[Na+].[O]=[V]
inactive: dose: 2.0 mg/kg/injection, schedule: Q01DX015 (ip), vehicle: carboxymethylcellulose (CMC) 98 % of control | dose: 4.0 mg/kg/injection, schedule: Q01DX015 (ip), vehicle: carboxymethylcellulose (CMC) 93 % of control | dose: 8.0 mg/kg/injection, schedule: Q01DX015 (ip), vehicle: carboxymethylcellulose (CMC) 100 % of control | dose: 16.0 mg/kg/injection, schedule: Q01DX015 (ip), vehicle: carboxymethylcellulose (CMC) 110 % of control and 113 % of control | dose: 32.0 mg/kg/injection, schedule: Q01DX015 (ip), vehicle: carboxymethylcellulose (CMC) 101 % of control

CCc1cccc2ccccc12
inactive: dose: 50.0 mg/kg/injection, schedule: Q04DX003 (ip), vehicle: Klucel (hydroxypropylcellulose) (HPC) 100 % of control | [6] 90 % of control | [8] 98 % of control | [9] 92 % of control | [10] 107 % of control | [7] 96 % of control | [11] 96 % of control

O=C(O)c1ccc(OCCCOc2ccccc2)c(Cl)c1
inactive: [3] 96 % of control | [4] 93 % of control

O=C(O)/C=C/C(=O)Nc1ccc(Cl)cc1C(=O)c1ccccc1
inactive: [6] 101 % of control | [9] 98 % of control

O=C(CNC(=O)OCc1ccccc1)NC(Cc1ccc(O)cc1)C(=O)OCc1ccccc1 (stereo not drawn) (Cbz-Gly-[ξY]-OBn)
inactive: [8] 96 % of control | [10] 97 % of control | [11] 91 % of control

COC(=O)c1cc(NC(=O)Nc2ccc(F)c(Cl)c2)cc(C(=O)OC)c1
inactive: [5] 98 % of control | dose: 200.0 mg/kg/injection, schedule: Q01DX009 (ip), vehicle: saline 98 % of control | dose: 400.0 mg/kg/injection, schedule: Q01DX009 (ip), vehicle: saline 102 % of control

CN(C)c1ccc(/C=C/c2ccc([N+](=O)[O-])cc2[N+](=O)[O-])c(Cl)c1
inactive: dose: 50.0 mg/kg/injection, schedule: Q01DX009 (ip), vehicle: saline with Tween-80 88 % of control | [12] 100 % of control | [13] 91 % of control

CSc1ncnc2c1nc[n]2[Sn]([c]1ccccc1)([c]1ccccc1)[c]1ccccc1.CSc1ncnc2nc[nH]c12
inactive: dose: 5.0 mg/kg/injection, schedule: Q01DX001 (ip), vehicle: other 108 % of control | dose: 10.0 mg/kg/injection, schedule: Q01DX001 (ip), vehicle: other 104 % of control | dose: 20.0 mg/kg/injection, schedule: Q01DX001 (ip), vehicle: other 111 % of control

COc1cc(C=Nc2ccc(Cl)cc2)ccc1OC(=O)c1ccccc1
inactive: dose: 100.0 mg/kg/injection, schedule: Q04DX002 (ip), vehicle: saline with Tween-80 91 % of control | dose: 200.0 mg/kg/injection, schedule: Q04DX002 (ip), vehicle: saline with Tween-80 87 % of control

COc1ccc(C=C2c3ccccc3-c3ccccc32)cc1
inactive: dose: 100.0 mg/kg/injection, schedule: Q04DX003 (ip), vehicle: saline sonified 95 % of control | dose: 200.0 mg/kg/injection, schedule: Q04DX003 (ip), vehicle: saline sonified 100 % of control | dose: 400.0 mg/kg/injection, schedule: Q04DX003 (ip), vehicle: saline sonified 94 % of control

N/C(=N\Nc1ccccc1)N[N+](=O)[O-]
inactive: dose: 175.0 mg/kg/injection, schedule: Q01DX001 (ip), vehicle: acetone 100 % of control | dose: 265.0 mg/kg/injection, schedule: Q01DX001 (ip), vehicle: acetone 96 % of control | dose: 400.0 mg/kg/injection, schedule: Q01DX001 (ip), vehicle: acetone 94 % of control | dose: 600.0 mg/kg/injection, schedule: Q01DX001 (ip), vehicle: acetone 104 % of control

COc1c2c(cc3c(C)cc(=O)n(C)c13)c(C)cc(=O)n2C
inactive: [8] 99 % of control | [10] 92 % of control | [11] 101 % of control

CCN(CC)CCN1C(=O)C(c2ccccc2)C2(CCN(C)CC2)C1=O (configuration not stated)
inactive: [1] 101 % of control | [2] 105 % of control | dose: 400.0 mg/kg/injection, schedule: Q01DX001 (ip), vehicle: saline 97 % of control

CCOC(=O)c1[nH]c2ccsc2c1CN1CCCCC1
inactive: dose: 50.0 mg/kg/injection, schedule: Q01DX001 (ip), vehicle: Klucel (hydroxypropylcellulose) (HPC) 93 % of control | dose: 100.0 mg/kg/injection, schedule: Q01DX001 (ip), vehicle: Klucel (hydroxypropylcellulose) (HPC) 101 % of control

N#CC(C#N)=Cc1c[nH]c2ccccc12
inactive: [12] 86 % of control | [3] 95 % of control | [13] 89 % of control | [4] 97 % of control | dose: 400.0 mg/kg/injection, schedule: Q01DX009 (ip), vehicle: saline with Tween-80 86 % of control

From PubChem BioAssay AID248 (DTP/NCI, 2004)
